Assay results from ChEMBL document CHEMBL1201862, “PubChem BioAssay data set” (2004).
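Step 1: Grow cells in 96-well plates. Step 2: Expose to compound for 48 hours at 5 concentrations. Step 3: Interpolate endpoints linearly; if unreached, use highest concentration. GI50 marks 50% less growth.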 The source made the active and inactive calls. No stated cut-off is given here; in the data, active = GI50 up to about 1.1 µM and inactive = higher.

Columns and labels:
Experiment in all cases: DTP human tumour cell line panel, 48 h
A498 = system: A498
ACHN = system: ACHN
CAKI-1 = system: CAKI-1
DU-145 = system: DU-145
HCC 2998 = system: HCC 2998
HT-29 = system: HT-29
Hs-578T = system: Hs-578T
K562 = system: K562
KM12 = system: KM12
MCF7 = system: MCF7
MDA-MB-231 = system: MDA-MB-231
MOLT-4 = system: MOLT-4
NCI-H226 = system: NCI-H226
NCI-H23 = system: NCI-H23
NCI/ADR-RES = system: NCI/ADR-RES
SK-MEL-2 = system: SK-MEL-2
SN12C = system: SN12C
SNB-19 = system: SNB-19
UACC-257 = system: UACC-257
SK-OV-3 = system: SK-OV-3

| Compound | GI50 (A498) | GI50 (ACHN) | GI50 (CAKI-1) | GI50 (DU-145) | GI50 (HCC 2998) | GI50 (HT-29) | GI50 (Hs-578T) | GI50 (K562) | GI50 (KM12) | GI50 (MCF7) | GI50 (MDA-MB-231) | GI50 (MOLT-4) | GI50 (NCI-H226) | GI50 (NCI-H23) | GI50 (NCI/ADR-RES) | GI50 (SK-MEL-2) | GI50 (SN12C) | GI50 (SNB-19) | GI50 (UACC-257) | GI50 (SK-OV-3) |
| --- | --- | --- | --- | --- | --- | --- | --- | --- | --- | --- | --- | --- | --- | --- | --- | --- | --- | --- | --- | --- |
| O=C(O)c1c(CC(Cc2ccc3c(c2)CCC3)C(=O)O)ccc2c1CCC2 (stereo not drawn) | > 100 µM (inactive) | > 100 µM (inactive) | > 100 µM (inactive) | > 100 µM (inactive) | > 100 µM (inactive) | > 100 µM (inactive) | > 100 µM (inactive) | > 100 µM (inactive) | > 100 µM (inactive) | > 100 µM (inactive) | > 100 µM (inactive) | > 100 µM (inactive) | > 100 µM (inactive) | > 100 µM (inactive) | > 100 µM (inactive) | > 100 µM (inactive) | > 100 µM (inactive) | > 100 µM (inactive) | > 100 µM (inactive) |  |
| O=C(CCCN1CCC2(CC1)OC(=O)N(c1ccccc1)C2=O)c1ccccc1 | > 100 µM (inactive) | > 100 µM (inactive) | > 100 µM (inactive) | > 100 µM (inactive) | > 100 µM (inactive) | > 100 µM (inactive) | > 100 µM (inactive) | > 100 µM (inactive) | > 100 µM (inactive) | > 100 µM (inactive) | 35.5 µM (inactive) | > 100 µM (inactive) | > 100 µM (inactive) | > 100 µM (inactive) | > 100 µM (inactive) | > 100 µM (inactive) | > 100 µM (inactive) | > 100 µM (inactive) | > 100 µM (inactive) | > 100 µM (inactive) |
| CC(C)=CC[S+]([O-])c1ccccc1NC1=CC(=O)CC(C)(C)C1 (stereo not drawn) | > 100 µM (inactive) | > 100 µM (inactive) | > 100 µM (inactive) | > 100 µM (inactive) | > 100 µM (inactive) | > 100 µM (inactive) | > 100 µM (inactive) | > 100 µM (inactive) | > 100 µM (inactive) | > 100 µM (inactive) | > 100 µM (inactive) | > 100 µM (inactive) | > 100 µM (inactive) | > 100 µM (inactive) | > 100 µM (inactive) | > 100 µM (inactive) | > 100 µM (inactive) | > 100 µM (inactive) | > 100 µM (inactive) | > 100 µM (inactive) |
| CC1OC(O)CC(N(C)C)C1O.CC1OC(O)CCC1O.CCC1CC(O)c2c(O)c3c(c(O)c2C1O)C(=O)c1cccc(O)c1C3=O (stereo not drawn) | 0.0114 µM (active) | 0.0159 µM (active) | 0.0156 µM (active) | 0.0333 µM (active) | 0.0197 µM (active) | 0.0126 µM (active) | 0.0507 µM (active) | 0.00597 µM (active) | 0.0209 µM (active) | 0.0325 µM (active) | 0.0275 µM (active) | 0.0284 µM (active) | 0.0168 µM (active) | 0.0301 µM (active) | 0.251 µM (active) | 0.0212 µM (active) | 0.0353 µM (active) | 0.0301 µM (active) | 0.0342 µM (active) | 0.033 µM (active) |
| O=C1NC2(CCNCC2)Oc2ccccc21 |  | > 100 µM (inactive) | > 100 µM (inactive) | > 100 µM (inactive) | > 100 µM (inactive) | > 100 µM (inactive) | > 100 µM (inactive) | > 100 µM (inactive) | > 100 µM (inactive) | > 100 µM (inactive) | > 100 µM (inactive) | > 100 µM (inactive) | > 100 µM (inactive) | > 100 µM (inactive) | > 100 µM (inactive) | > 100 µM (inactive) | > 100 µM (inactive) | > 100 µM (inactive) | > 100 µM (inactive) | > 100 µM (inactive) |
| NC(Cc1ccc(CP(=O)(O)O)cc1)C(=O)O (stereo not drawn) |  | > 100 µM (inactive) | 11.5 µM (inactive) | > 100 µM (inactive) | > 100 µM (inactive) | > 100 µM (inactive) | > 100 µM (inactive) | > 100 µM (inactive) | > 100 µM (inactive) | > 100 µM (inactive) | > 100 µM (inactive) | > 100 µM (inactive) |  | > 100 µM (inactive) | > 100 µM (inactive) | > 100 µM (inactive) | > 100 µM (inactive) | > 100 µM (inactive) | > 100 µM (inactive) | > 100 µM (inactive) |
| COc1ccc(N[S+]([O-])C2CCCCC2)cc1 (stereo not drawn) |  | > 100 µM (inactive) | > 100 µM (inactive) | > 100 µM (inactive) | 59.2 µM (inactive) | > 100 µM (inactive) | > 100 µM (inactive) | > 100 µM (inactive) | > 100 µM (inactive) | > 100 µM (inactive) | > 100 µM (inactive) | > 100 µM (inactive) | > 100 µM (inactive) | > 100 µM (inactive) | > 100 µM (inactive) |  | > 100 µM (inactive) | > 100 µM (inactive) | > 100 µM (inactive) |  |
